The test concerns CD2F1 mice, L1210 leukemia ip, survival T/C. Put plainly: NCI In Vivo Anticancer Drug Screen. Data for tumor model L1210 Leukemia (intraperitoneal) in CD2F1 (CDF1) mice. The conditions noted are these: higher = longer survival. An outline of the steps: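 Activity against a transplanted murine tumor was judged by comparing the compound group with a vehicle group. The outcome in the treated animals was divided by that in the controls.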

The mark [1] stands for this setting: endpoint: mean survival time, dose: 100.0 mg/kg/injection, schedule: Q01DX009 (ip), vehicle: saline with Tween-80.
Where [2] appears, read: endpoint: mean survival time, dose: 100.0 mg/kg/injection, schedule: Q04DX003 (ip), vehicle: saline with Tween-80.
Where [3] appears, read: endpoint: mean survival time, dose: 200.0 mg/kg/injection, schedule: Q01DX009 (ip), vehicle: saline with Tween-80.
Setting [4] is: endpoint: mean survival time, dose: 400.0 mg/kg/injection, schedule: Q04DX003 (ip), vehicle: saline with Tween-80.
[5] abbreviates: endpoint: mean survival time, dose: 25.0 mg/kg/injection, schedule: Q01DX009 (ip), vehicle: saline with Tween-80.
Setting [6] is: endpoint: mean survival time, dose: 50.0 mg/kg/injection, schedule: Q01DX009 (ip), vehicle: saline with Tween-80.
Setting [7] is: endpoint: mean survival time, dose: 12.5 mg/kg/injection, schedule: Q04DX003 (ip), vehicle: saline with Tween-80.
The mark [8] stands for this setting: endpoint: mean survival time, dose: 25.0 mg/kg/injection, schedule: Q04DX003 (ip), vehicle: saline with Tween-80.
[9] abbreviates: endpoint: mean survival time, dose: 50.0 mg/kg/injection, schedule: Q04DX003 (ip), vehicle: saline with Tween-80.
[10] abbreviates: endpoint: mean survival time, dose: 100.0 mg/kg/injection, schedule: Q01DX001 (ip), vehicle: saline.
Setting [11] is: endpoint: mean survival time, dose: 200.0 mg/kg/injection, schedule: Q01DX001 (ip), vehicle: saline.
The mark [12] stands for this setting: endpoint: mean survival time, dose: 400.0 mg/kg/injection, schedule: Q01DX001 (ip), vehicle: saline.
[13] abbreviates: endpoint: mean survival time, dose: 200.0 mg/kg/injection, schedule: Q04DX003 (ip), vehicle: saline with Tween-80.
[14] abbreviates: endpoint: mean survival time, dose: 100.0 mg/kg/injection, schedule: Q01DX001 (ip), vehicle: saline with Tween-80.
[15] abbreviates: endpoint: mean survival time, dose: 200.0 mg/kg/injection, schedule: Q01DX001 (ip), vehicle: saline with Tween-80.
Where [16] appears, read: endpoint: mean survival time, dose: 100.0 mg/kg/injection, schedule: Q04DX002 (ip), vehicle: saline with Tween-80.
The mark [17] stands for this setting: endpoint: mean survival time, dose: 200.0 mg/kg/injection, schedule: Q04DX002 (ip), vehicle: saline with Tween-80.
Setting [18] is: endpoint: mean survival time, dose: 400.0 mg/kg/injection, schedule: Q04DX002 (ip), vehicle: saline with Tween-80.

Values joined by “and” are separate entries in the source; they are usually repeats but may differ in a detail not shown here. Equal entries are not always repeated. Toxic doses and inconclusive results are not listed.

Turning to `O=Cc1ccc(N=Nc2c(S(=O)(=O)O)cc3cc(S(=O)(=O)O)cc(O)c3c2O)cc1`, the T/C by setting is: under setting [1], 100 % of control; under setting [2], 96 % of control; under setting [3], 88 % of control; under setting [4], 88 % of control.

For the compound `CCn1cnc(-c2ccccc2)c1-c1ccccc1`, the T/C was 110 % of control under setting [5], 107 % of control under setting [6], 98 % of control under setting [1] and 101 % of control under setting [2].

For `Cc1cc(Cc2ccccc2)c(O)c(Cc2ccccc2)c1`, the T/C (endpoint: mean survival time, dose: 100.0 mg/kg/injection, schedule: Q04DX003 (ip), vehicle: other) is 96 % of control; the T/C (endpoint: mean survival time, dose: 200.0 mg/kg/injection, schedule: Q04DX003 (ip), vehicle: other) is 102 % of control; the T/C (endpoint: mean survival time, dose: 400.0 mg/kg/injection, schedule: Q04DX003 (ip), vehicle: other) is 94 % of control.

With `COP(=O)(OC)OCC1OC(n2ccc(N)nc2=O)C(O)C1O` (centres undefined), the T/C is, setting by setting: (endpoint: median survival time, dose: 12.5 mg/kg/injection, schedule: Q01DX005 (ip), vehicle: saline) 111 % of control; (endpoint: median survival time, dose: 25.0 mg/kg/injection, schedule: Q01DX005 (ip), vehicle: saline) 104 % of control; (endpoint: median survival time, dose: 50.0 mg/kg/injection, schedule: Q01DX005 (ip), vehicle: saline) 110 % of control; (endpoint: median survival time, dose: 100.0 mg/kg/injection, schedule: Q01DX005 (ip), vehicle: saline) 115 % of control and 108 % of control; (endpoint: median survival time, dose: 200.0 mg/kg/injection, schedule: Q01DX005 (ip), vehicle: saline) 113 % of control.

With `O=c1cc(C(F)(F)F)[nH]c2ccc(Br)cc12`, the T/C is 97 % of control under setting [7], 95 % of control under setting [8] and 97 % of control under setting [9].

Consider `S=P(N1CC1)(N1CC1)N1CC1.[Cl-].[Cl-].[NH2-].[NH2-].[Pt+4]`, for which the T/C runs as follows: (endpoint: mean survival time, dose: 0.78 mg/kg/injection, schedule: Q01DX009 (ip), vehicle: Klucel (hydroxypropylcellulose) (HPC)) 112 % of control and 101 % of control; (endpoint: mean survival time, dose: 1.56 mg/kg/injection, schedule: Q01DX009 (ip), vehicle: Klucel (hydroxypropylcellulose) (HPC)) 114 % of control and 115 % of control and 107 % of control; (endpoint: mean survival time, dose: 3.13 mg/kg/injection, schedule: Q01DX009 (ip), vehicle: Klucel (hydroxypropylcellulose) (HPC)) 153 % of control; (endpoint: mean survival time, dose: 6.25 mg/kg/injection, schedule: Q01DX009 (ip), vehicle: Klucel (hydroxypropylcellulose) (HPC)) 111 % of control.

In the case of `CNCCOc1ccc(Cl)cc1`, the T/C by setting is: under setting [5], 94 % of control; under setting [8], 96 % of control; under setting [6], 96 % of control; under setting [9], 113 % of control; under setting [1], 96 % of control; under setting [2], 96 % of control and 97 % of control.

For the compound `NNC(=S)N/N=C/c1ccccn1`, the T/C reads like this: (endpoint: mean survival time, dose: 1.56 mg/kg/injection, schedule: Q01DX009 (ip), vehicle: saline) 93 % of control and 98 % of control; (endpoint: mean survival time, dose: 3.12 mg/kg/injection, schedule: Q01DX009 (ip), vehicle: saline) 98 % of control and 100 % of control; (endpoint: mean survival time, dose: 6.25 mg/kg/injection, schedule: Q01DX009 (ip), vehicle: saline with Tween-80) 105 % of control; (endpoint: mean survival time, dose: 6.25 mg/kg/injection, schedule: Q01DX009 (ip), vehicle: saline) 115 % of control; (endpoint: mean survival time, dose: 6.25 mg/kg/injection, schedule: Q04DX003 (ip), vehicle: saline with Tween-80) 118 % of control; (endpoint: mean survival time, dose: 6.3 mg/kg/injection, schedule: Q01DX009 (oral), vehicle: saline) 92 % of control. The T/C is 98 % of control (endpoint: mean survival time, dose: 12.5 mg/kg/injection, schedule: Q01DX009 (oral), vehicle: saline); 98 % of control under setting [7]; 102 % of control under setting [8].

In the case of `O=c1nc2n(CCO)c3ccccc3cc-2c(=O)[nH]1`, the T/C runs as follows: under setting [10], 95 % of control; under setting [11], 95 % of control; under setting [12], 89 % of control.

With `O=C(SC(=O)c1ccccc1)c1ccccc1`, the T/C runs as follows: under setting [2], 97 % of control; under setting [13], 100 % of control; under setting [4], 94 % of control.

In the case of `NC(=O)c1ccccc1N=NN(CCF)CCF`, the T/C is 103 % of control (endpoint: mean survival time, dose: 5.3 mg/kg/injection, schedule: Q04DX003 (ip), vehicle: saline with Tween-80); 100 % of control (endpoint: mean survival time, dose: 8.0 mg/kg/injection, schedule: Q04DX003 (ip), vehicle: saline with Tween-80); 105 % of control (endpoint: mean survival time, dose: 12.0 mg/kg/injection, schedule: Q04DX003 (ip), vehicle: saline with Tween-80).

Turning to `CCOC(=O)C(C)C(O)(c1ccccc1)c1ccccc1` (centres undefined), the T/C runs as follows: (endpoint: mean survival time, dose: 100.0 mg/kg/injection, schedule: Q04DX003 (ip), vehicle: Klucel (hydroxypropylcellulose) (HPC)) 95 % of control; (endpoint: mean survival time, dose: 200.0 mg/kg/injection, schedule: Q04DX003 (ip), vehicle: Klucel (hydroxypropylcellulose) (HPC)) 101 % of control; (endpoint: mean survival time, dose: 400.0 mg/kg/injection, schedule: Q04DX003 (ip), vehicle: Klucel (hydroxypropylcellulose) (HPC)) 95 % of control.

With `C=CCN(CC=C)C(=O)NCC(=O)OCC`, the T/C by setting is: under setting [6], 101 % of control; under setting [1], 95 % of control; under setting [3], 97 % of control.

With `COC(=O)C(N)CSCSCc1ccccc1` (centres undefined), the T/C runs as follows: (endpoint: mean survival time, dose: 25.0 mg/kg/injection, schedule: Q01DX005 (ip), vehicle: water) 101 % of control; (endpoint: mean survival time, dose: 50.0 mg/kg/injection, schedule: Q01DX005 (ip), vehicle: water) 93 % of control; (endpoint: mean survival time, dose: 100.0 mg/kg/injection, schedule: Q01DX005 (ip), vehicle: water) 93 % of control.

Turning to `CCCCSc1ncn(C)c1[N+](=O)[O-]`, the T/C is 101 % of control (endpoint: mean survival time, dose: 50.0 mg/kg/injection, schedule: Q01DX001 (ip), vehicle: saline with Tween-80); 103 % of control under setting [14]; 101 % of control under setting [15].

As to `C/C([O-])=C/[S+](C)(=O)N(C)C` (centres undefined), the T/C runs as follows: (endpoint: mean survival time, dose: 25.0 mg/kg/injection, schedule: Q01DX001 (ip), vehicle: saline) 103 % of control; (endpoint: mean survival time, dose: 50.0 mg/kg/injection, schedule: Q01DX001 (ip), vehicle: saline) 109 % of control; under setting [10], 96 % of control.

`COc1ccc(CC(=O)Nc2ccc(OC)c(OC)c2)cc1OC`: the T/C is 96 % of control (endpoint: mean survival time, dose: 12.5 mg/kg/injection, schedule: Q01DX009 (ip), vehicle: water); 98 % of control (endpoint: mean survival time, dose: 25.0 mg/kg/injection, schedule: Q01DX009 (ip), vehicle: water); 96 % of control (endpoint: mean survival time, dose: 50.0 mg/kg/injection, schedule: Q01DX009 (ip), vehicle: water); 95 % of control (endpoint: mean survival time, dose: 100.0 mg/kg/injection, schedule: Q01DX009 (ip), vehicle: water); 96 % of control (endpoint: mean survival time, dose: 200.0 mg/kg/injection, schedule: Q01DX009 (ip), vehicle: water).

As to `O=c1c([N+](=O)[O-])c[nH]c2ccccc12`, the T/C reads like this: under setting [16], 95 % of control; under setting [17], 95 % of control; under setting [18], 103 % of control.

Take `CC12OC3(C)C4C(=O)OC1C1(C)OC4(C)C3C(=O)OC21`: the T/C under setting [10] was 106 % of control; the T/C (endpoint: mean survival time, dose: 100.0 mg/kg/injection, schedule: Q04DX003 (ip), vehicle: saline) was 100 % of control; the T/C under setting [11] is 102 % of control; the T/C (endpoint: mean survival time, dose: 200.0 mg/kg/injection, schedule: Q04DX003 (ip), vehicle: saline) is 102 % of control; the T/C under setting [12] is 100 % of control; the T/C (endpoint: mean survival time, dose: 400.0 mg/kg/injection, schedule: Q04DX003 (ip), vehicle: saline) is 97 % of control.

Consider `O=C(NC(=S)Nc1cc(Cl)ccc1Cl)c1cccc(Br)c1`, for which the T/C was 100 % of control under setting [6]; 100 % of control under setting [14]; 101 % of control and 105 % of control and 106 % of control under setting [1]; 89 % of control and 95 % of control under setting [16]; 94 % of control under setting [2]; 97 % of control under setting [15]. Besides, the T/C reads like this: under setting [3], 98 % of control and 101 % of control; under setting [17], 90 % of control and 95 % of control; under setting [13], 90 % of control; (endpoint: mean survival time, dose: 400.0 mg/kg/injection, schedule: Q01DX001 (ip), vehicle: saline with Tween-80) 100 % of control; (endpoint: mean survival time, dose: 400.0 mg/kg/injection, schedule: Q01DX009 (ip), vehicle: saline with Tween-80) 115 % of control (2×) and 105 % of control; under setting [18], 92 % of control and 95 % of control. In addition, the T/C under setting [4] was 86 % of control.

Source of the values: PubChem BioAssay AID256 (DTP/NCI, 2004).
